Reference: US20220275461A1, “DIAGNOSTICS AND METHODS FOR PROGNOSING RESPONSE TO IMMUNOTHERAPY BASED ON THE METHYLATION STATUS OF IMMUNE SYNAPSE GENE SIGNATURE” (H. LEE MOFFITT CANCER CENTER AND RESEARCH INSTITUTE, INC., priority 2019, published 2022)

Assays:
[1] = system: epithelial cancer cell lines; test: PC1 scores of mock- or 5-azacitidine-treated cancer cell lines (GSE57342 dataset); format: cell-based; conditions: 26 epithelial cancer cell lines, mock- vs 5-azacitidine-treated; FIG. 18E
Text: The GSE57342 processed dataset was downloaded and cell lines with more than three Mock- and three 5-azacitidine-treated samples was selected for analysis.
We used the first and second principal component (a weighted average β-values among the CSG and ICG probes), as they account for the largest variability in the data, to represent the overall methylation status for 8,931 tumor and normal samples in the TCGA database. That is, PC=Σwixi, a weighted average β-values among the selected CSG and ICG probes, where xi represents gene i β-value, wi is the corresponding weight (loading coefficient) with Σwi^2=1, and the wi values maximize the variance of Σwixi. For each gene, a set of probes were selected using the following criteria to minimize noise, r<−0.2 (methylation vs gene expression) located in the TSS1500, TSS200 or the 5′UTR (Table 4). Each probe was centered but not scaled before PCA calculations.

[2] = system: CD40 gene in CAMA1 cell line; conditions: mock- vs azacytidine-treated, FIG. 18F; cited from earlier work

Compound: Nc1ncn([C@@H]2O[C@H](CO)[C@@H](O)[C@H]2O)c(=O)n1 [5-azacytidine]
- PC1 score (hypermethylation of CSGs) [1]: significant decrease in PC1 scores
- methylation status of CD40 gene [2]: demethylation of CD40
